pIC50: −log10 of the molar value.
Test system: 521955-158-R2-J5-PDC complex spheroids, viability
Assay: Anticancer human tumor 521955-158-R2-J5-PDC patient-derived pancreatic carcinoma cell line growth inhibition [RAS]
Details: curve of first compound; second compound 1 µM
Outline: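 Multi-cell-type spheroids: tumor cells plus HUVEC endothelial cells and mesenchymal stem cells. RAS-pathway inhibitors were combined with targeted agents, each dosed in half-log steps down from clinical Cmax, or from 10 microM when Cmax was unknown.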
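Further: compound exposure lasted seven days before the viability read.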
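Wherever viability, T/C is given: spheroids also contain HUVEC endothelial cells and mesenchymal stem cells as stroma.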

Structure (SMILES)	pIC50
CCC(CC)c1cc(NC2CCC(N)C2)n2nccc2n1 (stereo unspecified) + C=CC(=O)N1CCN(c2nc(OCC3CCCN3C)nc3c(F)c(-c4nc(N)cc(C)c4C(F)(F)F)c(Cl)cc23)C(C)C1	5.70
CCN1CCN(Cc2ccc(Nc3ncc(F)c(-c4cc(F)c5nc(C)n(C(C)C)c5c4)n3)nc2)CC1 + C=CC(=O)N1CCN(c2nc(OCC3CCCN3C)nc3c(F)c(-c4nc(N)cc(C)c4C(F)(F)F)c(Cl)cc23)C(C)C1	< 6.00
Cc1nc(N2CCC3(CC2)COC(C)C3N)c(CO)nc1Sc1ccnc(N)c1Cl (stereo unspecified) + C=CC(=O)N1CCN(c2nc(OCC3CCCN3C)nc3c(F)c(-c4nc(N)cc(C)c4C(F)(F)F)c(Cl)cc23)C(C)C1	< 5.00
NC1c2ccccc2OC12CCN(c1cnc3c(N4CCCc5ncccc54)n[nH]c3n1)CC2 (stereo unspecified) + C=CC(=O)N1CCN(c2nc(OCC3CCCN3C)nc3c(F)c(-c4nc(N)cc(C)c4C(F)(F)F)c(Cl)cc23)C(C)C1	< 5.00

Same assay, conditions: second compound 0.00316 µM; first compound 0.00316 µM; stronger effect = lower value

Structure (SMILES)	viability, T/C [%]
CCN1CCN(Cc2ccc(Nc3ncc(F)c(-c4cc(F)c5nc(C)n(C(C)C)c5c4)n3)nc2)CC1 + C=CC(=O)N1CCN(c2nc(OCC3CCCN3C)nc3c(F)c(-c4nc(N)cc(C)c4C(F)(F)F)c(Cl)cc23)C(C)C1	121

Same assay, conditions: second compound 0.00316 µM; first compound 0.01 µM; stronger effect = lower value

Structure (SMILES)	viability, T/C [%]
CCN1CCN(Cc2ccc(Nc3ncc(F)c(-c4cc(F)c5nc(C)n(C(C)C)c5c4)n3)nc2)CC1 + C=CC(=O)N1CCN(c2nc(OCC3CCCN3C)nc3c(F)c(-c4nc(N)cc(C)c4C(F)(F)F)c(Cl)cc23)C(C)C1	89.3

Same assay, conditions: second compound 0.00316 µM; first compound 0.0316 µM; stronger effect = lower value

Structure (SMILES)	viability, T/C [%]
CC1(O)CCCC1n1c(=O)c(C(F)F)cc2cnc(NC3CCN(S(C)(=O)=O)CC3)nc21 (stereo unspecified) + C=CC(=O)N1CCN(c2nc(OCC3CCCN3C)nc3c(F)c(-c4nc(N)cc(C)c4C(F)(F)F)c(Cl)cc23)C(C)C1	93.1
CCC(CC)c1cc(NC2CCC(N)C2)n2nccc2n1 (stereo unspecified) + C=CC(=O)N1CCN(c2nc(OCC3CCCN3C)nc3c(F)c(-c4nc(N)cc(C)c4C(F)(F)F)c(Cl)cc23)C(C)C1	95.8
CCN1CCN(Cc2ccc(Nc3ncc(F)c(-c4cc(F)c5nc(C)n(C(C)C)c5c4)n3)nc2)CC1 + C=CC(=O)N1CCN(c2nc(OCC3CCCN3C)nc3c(F)c(-c4nc(N)cc(C)c4C(F)(F)F)c(Cl)cc23)C(C)C1	85.3
Cc1nc(N2CCC3(CC2)COC(C)C3N)c(CO)nc1Sc1ccnc(N)c1Cl (stereo unspecified) + C=CC(=O)N1CCN(c2nc(OCC3CCCN3C)nc3c(F)c(-c4nc(N)cc(C)c4C(F)(F)F)c(Cl)cc23)C(C)C1	88.7
NC1c2ccccc2OC12CCN(c1cnc3c(N4CCCc5ncccc54)n[nH]c3n1)CC2 (stereo unspecified) + C=CC(=O)N1CCN(c2nc(OCC3CCCN3C)nc3c(F)c(-c4nc(N)cc(C)c4C(F)(F)F)c(Cl)cc23)C(C)C1	69.6

Same assay, conditions: second compound 0.00316 µM; first compound 0.1 µM; stronger effect = lower value

Structure (SMILES)	viability, T/C [%]
CC1(O)CCCC1n1c(=O)c(C(F)F)cc2cnc(NC3CCN(S(C)(=O)=O)CC3)nc21 (stereo unspecified) + C=CC(=O)N1CCN(c2nc(OCC3CCCN3C)nc3c(F)c(-c4nc(N)cc(C)c4C(F)(F)F)c(Cl)cc23)C(C)C1	83
CCC(CC)c1cc(NC2CCC(N)C2)n2nccc2n1 (stereo unspecified) + C=CC(=O)N1CCN(c2nc(OCC3CCCN3C)nc3c(F)c(-c4nc(N)cc(C)c4C(F)(F)F)c(Cl)cc23)C(C)C1	118
CCN1CCN(Cc2ccc(Nc3ncc(F)c(-c4cc(F)c5nc(C)n(C(C)C)c5c4)n3)nc2)CC1 + C=CC(=O)N1CCN(c2nc(OCC3CCCN3C)nc3c(F)c(-c4nc(N)cc(C)c4C(F)(F)F)c(Cl)cc23)C(C)C1	85.2
Cc1nc(N2CCC3(CC2)COC(C)C3N)c(CO)nc1Sc1ccnc(N)c1Cl (stereo unspecified) + C=CC(=O)N1CCN(c2nc(OCC3CCCN3C)nc3c(F)c(-c4nc(N)cc(C)c4C(F)(F)F)c(Cl)cc23)C(C)C1	77.2
NC1c2ccccc2OC12CCN(c1cnc3c(N4CCCc5ncccc54)n[nH]c3n1)CC2 (stereo unspecified) + C=CC(=O)N1CCN(c2nc(OCC3CCCN3C)nc3c(F)c(-c4nc(N)cc(C)c4C(F)(F)F)c(Cl)cc23)C(C)C1	69.4

Same assay, conditions: second compound 0.00316 µM; first compound 0.316 µM; stronger effect = lower value

Structure (SMILES)	viability, T/C [%]
CC1(O)CCCC1n1c(=O)c(C(F)F)cc2cnc(NC3CCN(S(C)(=O)=O)CC3)nc21 (stereo unspecified) + C=CC(=O)N1CCN(c2nc(OCC3CCCN3C)nc3c(F)c(-c4nc(N)cc(C)c4C(F)(F)F)c(Cl)cc23)C(C)C1	81
CCC(CC)c1cc(NC2CCC(N)C2)n2nccc2n1 (stereo unspecified) + C=CC(=O)N1CCN(c2nc(OCC3CCCN3C)nc3c(F)c(-c4nc(N)cc(C)c4C(F)(F)F)c(Cl)cc23)C(C)C1	122
CCN1CCN(Cc2ccc(Nc3ncc(F)c(-c4cc(F)c5nc(C)n(C(C)C)c5c4)n3)nc2)CC1 + C=CC(=O)N1CCN(c2nc(OCC3CCCN3C)nc3c(F)c(-c4nc(N)cc(C)c4C(F)(F)F)c(Cl)cc23)C(C)C1	140
Cc1nc(N2CCC3(CC2)COC(C)C3N)c(CO)nc1Sc1ccnc(N)c1Cl (stereo unspecified) + C=CC(=O)N1CCN(c2nc(OCC3CCCN3C)nc3c(F)c(-c4nc(N)cc(C)c4C(F)(F)F)c(Cl)cc23)C(C)C1	69.8
NC1c2ccccc2OC12CCN(c1cnc3c(N4CCCc5ncccc54)n[nH]c3n1)CC2 (stereo unspecified) + C=CC(=O)N1CCN(c2nc(OCC3CCCN3C)nc3c(F)c(-c4nc(N)cc(C)c4C(F)(F)F)c(Cl)cc23)C(C)C1	64.4

Same assay, conditions: second compound 0.00316 µM; first compound 1 µM; stronger effect = lower value

Structure (SMILES)	viability, T/C [%]
CC1(O)CCCC1n1c(=O)c(C(F)F)cc2cnc(NC3CCN(S(C)(=O)=O)CC3)nc21 (stereo unspecified) + C=CC(=O)N1CCN(c2nc(OCC3CCCN3C)nc3c(F)c(-c4nc(N)cc(C)c4C(F)(F)F)c(Cl)cc23)C(C)C1	80.9
CCC(CC)c1cc(NC2CCC(N)C2)n2nccc2n1 (stereo unspecified) + C=CC(=O)N1CCN(c2nc(OCC3CCCN3C)nc3c(F)c(-c4nc(N)cc(C)c4C(F)(F)F)c(Cl)cc23)C(C)C1	107
CCN1CCN(Cc2ccc(Nc3ncc(F)c(-c4cc(F)c5nc(C)n(C(C)C)c5c4)n3)nc2)CC1 + C=CC(=O)N1CCN(c2nc(OCC3CCCN3C)nc3c(F)c(-c4nc(N)cc(C)c4C(F)(F)F)c(Cl)cc23)C(C)C1	102
Cc1nc(N2CCC3(CC2)COC(C)C3N)c(CO)nc1Sc1ccnc(N)c1Cl (stereo unspecified) + C=CC(=O)N1CCN(c2nc(OCC3CCCN3C)nc3c(F)c(-c4nc(N)cc(C)c4C(F)(F)F)c(Cl)cc23)C(C)C1	70.5
NC1c2ccccc2OC12CCN(c1cnc3c(N4CCCc5ncccc54)n[nH]c3n1)CC2 (stereo unspecified) + C=CC(=O)N1CCN(c2nc(OCC3CCCN3C)nc3c(F)c(-c4nc(N)cc(C)c4C(F)(F)F)c(Cl)cc23)C(C)C1	61.5
